Laboratory results from US5686637A, “Antifungal agent” (Merck & Co., Inc., priority 1995, dated 1997).
Values after ≈ are worked out from the molar mass of the structure shown.

How the values were obtained:
[1] = test system: C. pseudotropicalis (MY 2099); assay: microbroth dilution assay (MIC/MFC), C. pseudotropicalis (MY 2099); assay type: cell-based, Candida pseudotropicalis; conditions: Kluyveromyces marxianus, C. pseudotropicalis (MY 2099)
Description: (§1) In the microbroth dilution assay, microorganisms were selected by streaking a yeast culture on Sabouraud dextrose agar (SDA) incubating for 24-48 hours at 35°-37° C., thereafter selected 3 to 5 characteristic colonies and transferring to a fresh plate and incubating under similar conditions. From the regrowth, 3 to 5 colonies were selected and suspended in. 10 milliliters of YM broth (Dffco) and incubated for 4 hours at 35°-37° C. shaking at 225 rpm. The 4 hour broth cultures were adjusted optically to 86% transmission resulting in a concentration of 1-5×10^6 cfu/ml which was further diluted 1:100 in YNBD (yeast nitrogen base with 1% dextrose) to obtain a concentration of 1-5×10^4 cfu/ml for use as inocula.
(§2) The test compound, Compound I, was prepared as a stock solution of 128 μg/ml in 20% methanol and 75 μl of said solution delivered to each well in column 1 of a 96-well, U-bottomed microtiter plate. The compounds in column 1 were then serially diluted two-fold to yield concentrations from 32 μg/ml to 0.15 μg/ml.
as §2, with “Amphotericin, the control” for “The test”, “compound,” for “compound, Compound I,”, “512” for “128”, “10% DMSO” for “20% methanol”, “128” for “32”, “0.6” for “0.15”
(§3) The plates containing the diluted compounds were then inoculated with 75 μl/well of the appropriate microorganism and incubated for 48 hours at 35°-37° C. with MIC (minimum inhibitory concentration) determinations carried out after 24 hours of incubation. Growth and sterility controls for each organism and sterility checks for the compounds also were carded out.
(§4) After recording MICs at 24 hours, the microtiter plates were shaken gently to resuspend the cells. A 1.5 μl sample was transferred from each well of the 96-well microtiter plate to a single reservoir inoculum plate containing SDA. The inoculated SDA and corresponding microtiter plates were incubated for 24 hours at 35°-37° C. For Cryptococus neoformans, SDA plates were inoculated at 48 hours after recording MICs and incubated 48 hours before reading the MFC. MFC is the lowest concentration of compound at which either no growth or growth of ≤4 colonies occur.

[2] = test system: C. parapsilosis (MY 1010); assay: microbroth dilution assay (MIC/MFC), C. parapsilosis (MY 1010); assay type: cell-based; conditions: Lodderomyces parapsilosis, C. parapsilosis (MY 1010)
Description: as §1, §2
as §2, with “Amphotericin, the control” for “The test”, “compound,” for “compound, Compound I,”, “512” for “128”, “10% DMSO” for “20% methanol”, “128” for “32”, “0.6” for “0.15”
as §3, §4

[3] = test system: Candida albicans (MY 1055); assay: microbroth dilution assay (MIC/MFC), Candida albicans (MY 1055); assay type: cell-based; conditions: Candida albicans (MY 1055)
Description: as §1, §2
as §2, with “Amphotericin, the control” for “The test”, “compound,” for “compound, Compound I,”, “512” for “128”, “10% DMSO” for “20% methanol”, “128” for “32”, “0.6” for “0.15”
as §3, §4

[4] = test system: Cryptococcus neoformans (MY 2062); assay: microbroth dilution assay (MIC), Cryptococcus neoformans (MY 2062); assay type: cell-based; conditions: 24 h; Cryptococcus neoformans (MY 2062); 35°-37° C.; SDA plates inoculated at 48 hours after recording MICs; read-out: Minimum Inhibitory Concentration (MIC)
Description: as §1
as §2, with “μg/ml. […]” for “μg/ml.”
(§5) After recording MICs at 24 hours, the microtiter plates were shaken gently to resuspend the cells. […] For Cryptococus neoformans, SDA plates were inoculated at 48 hours after recording MICs and incubated 48 hours before reading the MFC. […]

C. albicans (CA2) = assay: microbroth dilution assay (MIC/MFC), C. albicans (CA2); assay type: cell-based; conditions: Candida albicans, C. albicans (CA2)
Description: as §1, §2
as §2, with “Amphotericin, the control” for “The test”, “compound,” for “compound, Compound I,”, “512” for “128”, “10% DMSO” for “20% methanol”, “128” for “32”, “0.6” for “0.15”
as §3, §4

C. topicalis (MY1012) = assay: microbroth dilution assay (MIC/MFC), C. topicalis (MY1012); assay type: cell-based; conditions: C. topicalis (MY1012)
Description: as §1, §2
as §2, with “Amphotericin, the control” for “The test”, “compound,” for “compound, Compound I,”, “512” for “128”, “10% DMSO” for “20% methanol”, “128” for “32”, “0.6” for “0.15”
as §3, §4

C. glabrata (MY1381) = assay: microbroth dilution assay (MIC/MFC), C. glabrata (MY1381); assay type: cell-based; conditions: Nakaseomyces glabratus, C. glabrata (MY1381)
Description: as §1, §2
as §2, with “Amphotericin, the control” for “The test”, “compound,” for “compound, Compound I,”, “512” for “128”, “10% DMSO” for “20% methanol”, “128” for “32”, “0.6” for “0.15”
as §3, §4

[5] = test system: C. guillermondii (MY 1019); assay: microbroth dilution assay (MIC/MFC), C. guillermondii (MY 1019); assay type: cell-based; conditions: C. guillermondii (MY 1019)
Description: as §1, §2
as §2, with “Amphotericin, the control” for “The test”, “compound,” for “compound, Compound I,”, “512” for “128”, “10% DMSO” for “20% methanol”, “128” for “32”, “0.6” for “0.15”
as §3, §4

[6] = test system: Aspergillus fumigatus (MF 4839); assay: microbroth dilution assay (MIC), Aspergillus fumigatus (MF 4839); assay type: cell-based; conditions: Aspergillus fumigatus (MF 4839); 24 h, 35°-37° C.; read-out: Minimum Inhibitory Concentration (MIC)
Description: as §1
as §2, with “μg/ml. […]” for “μg/ml.”
as §5

C. albicans (CLY539) = assay: microbroth dilution assay (MIC/MFC), C. albicans (CLY539); assay type: cell-based; conditions: Candida albicans, C. albicans (CLY539)
Description: as §1, §2
as §2, with “Amphotericin, the control” for “The test”, “compound,” for “compound, Compound I,”, “512” for “128”, “10% DMSO” for “20% methanol”, “128” for “32”, “0.6” for “0.15”
as §3, §4

C. tropicalis (MY1124) = assay: microbroth dilution assay (MIC/MFC), C. tropicalis (MY1124); assay type: cell-based; conditions: Candida tropicalis, C. tropicalis (MY1124)
Description: as §1, §2
as §2, with “Amphotericin, the control” for “The test”, “compound,” for “compound, Compound I,”, “512” for “128”, “10% DMSO” for “20% methanol”, “128” for “32”, “0.6” for “0.15”
as §3, §4

A. fumigatus (5668) = assay: microbroth dilution assay (MIC), A. fumigatus (5668); assay type: cell-based; conditions: Aspergillus fumigatus; A. fumigatus (5668); 24 h, 35°-37° C.; read-out: Minimum Inhibitory Concentration (MIC)
Description: as §1
as §2, with “μg/ml. […]” for “μg/ml.”
as §5

[7] = test system: filamentous fungi (AspergiIlus fiavus, Fusarium oxysporum, usalago zeae and the like); assay: agar plate inhibition zone test, filamentous fungi; assay type: cell-based; conditions: agar plates, methanol solutions, 28° C. or 37° C., 24 hours
Description: Compound I is also useful for inhibiting the growth of filamentous fungi. Such use may be illustrated in the following tests with AspergiIlus fiavus, Fusarium oxysporum, usalago zeae and the like. Inocula for filamentous fungi are prepared by scraping the surface of stock plates maintained on potato dextrose agar with a moistened sterile dacron swab. The spores and mycelia are then suspended in 10 milliliters of sterile potato dextrose broth and adjusted to 70 percent transmission at 660 nm. The samples to be tested for production of antifungal agent are applied directly to the agar plates as methanol solutions. When the sample to be tested is crude broth, it may be centrifuged prior to application. The assay plates are then incubated at either 28° C. or 37° C. for 24 hours. Following incubation, the inhibition zones are measured. Growths are also noted as to appearance.

[8] = test system: Saccharomyces cerevisiae (MY 2140); assay: microbroth dilution assay (MIC/MFC), Saccharomyces cerevisiae (MY 2140); assay type: cell-based; conditions: Saccharomyces cerevisiae (MY 2140)
Description: as §1, §2
as §2, with “Amphotericin, the control” for “The test”, “compound,” for “compound, Compound I,”, “512” for “128”, “10% DMSO” for “20% methanol”, “128” for “32”, “0.6” for “0.15”
as §3, §4

panel of fungi = assay: broth microdilution assay against a panel of fungi; assay type: cell-based; conditions: MIC and MFC
Description: as §1
as §2, with “μg/ml. […]” for “μg/ml.”
as §5

[9] = 24 h, 35°-37° C., read-out: Minimum Inhibitory Concentration (MIC)
[10] = no growth or ≤4 colonies on SDA after 24 h, read-out: Minimum Fungicidal Concentration (MFC)

Compound: CCCCCCCCCCC(C)C(O)C(C)/C=C(C)/C=C(\C)C(=O)C(C)/C=C(\C)C(=O)OC(CO)C(O)C(O)C(=O)O (stereo not shown) [Compound I]
- MIC [1, 9]: 1 µg/mL (≈ 1.68 µM)
- MFC [1, 10]: 1 µg/mL (≈ 1.68 µM)
- MIC [2, 9]: 2 µg/mL (≈ 3.35 µM)
- MFC [2, 10]: 2 µg/mL (≈ 3.35 µM)
- MIC [3, 9]: 2 µg/mL (≈ 3.35 µM)
- MFC [3, 10]: 2 µg/mL (≈ 3.35 µM)
- MIC [4]: 2 µg/mL (≈ 3.35 µM)
- MIC (C. albicans (CA2); [9]): 2 µg/mL (≈ 3.35 µM)
- MFC (C. albicans (CA2); [10]): 2 µg/mL (≈ 3.35 µM)
- MIC (C. topicalis (MY1012); [9]): 1 µg/mL (≈ 1.68 µM)
- MFC (C. topicalis (MY1012); [10]): 0.5 µg/mL (≈ 0.838 µM)
- MIC (C. glabrata (MY1381); [9]): 4 µg/mL (≈ 6.7 µM)
- MFC (C. glabrata (MY1381); [10]): 4 µg/mL (≈ 6.7 µM)
- MIC [5, 9]: 4 µg/mL (≈ 6.7 µM)
- MFC [5, 10]: 16 µg/mL (≈ 26.8 µM)
- MIC [6]: > 32 µg/mL
- MIC (C. albicans (CLY539); [9]): 2 µg/mL (≈ 3.35 µM)
- MFC (C. albicans (CLY539); [10]): 2 µg/mL (≈ 3.35 µM)
- MIC (C. tropicalis (MY1124); [9]): 2 µg/mL (≈ 3.35 µM)
- MFC (C. tropicalis (MY1124); [10]): 2 µg/mL (≈ 3.35 µM)
- MIC (A. fumigatus (5668)): > 32 µg/mL
- inhibition of growth of fungal organisms (inhibition zones) [7]: effectively inhibit growth of the fungal organisms
- MIC [8, 9]: 4 µg/mL (≈ 6.7 µM)
- MFC [8, 10]: 4 µg/mL (≈ 6.7 µM)
- effective concentrations against a panel of fungi compared with amphotericin B (panel of fungi): effective at concentrations comparable to an established antifungal agent, amphotericin B
